What was measured:
[1] = Telemetric monitoring of heart rate and blood pressure in rats; type: in vivo, rat
Method: (§1) Five months-old male normotensive Sprague-Dawley rats (508±18 g, Harlan, Horst, The Netherlands) were housed in solid bottomed Plexiglas cages with dust free wood chippings and a cardboard tube. Holding rooms were maintained under a 12-h light/dark cycle (lights off: 1500 h). Ambient temperature was 18.0 to 22.0° C. and relative air humidity of 40 to 60%. A dim red light was the sole source of illumination during the dark period. The rats had ad libitum standard chow (Altromin 1324, 10% kcal from fat, energy density 2.85 kcal per g, Altromin GmbH, Lage, Germany) and water. All experiments were approved (permission no. 2007/561-1343) and conducted in accordance with the guidelines of the Animal Experimentation Inspectorate, Ministry of Justice, Denmark.
The rats were implanted at Harlan laboratories, Horst, the Netherlands, with Data Science International (DSI, St. Paul, USA) Physiotel PA-C40 transmitters according to the manufactures description. In brief, the rats were anaesthetized with isoflurane, ventilated, and a laparotomy was performed under aseptic conditions. A pressure catheter was inserted and sealed in place with Vetbond (3M, St. Paul, USA) into the isolated abdominal aorta. Finally, the transmitter was placed on top of the intestines, in parallel to the long axis of the body, and secured to the abdominal wall, where after the abdominal muscle layer and skin was closed with solvable sutures. The animals were allowed full post-surgical recovery before shipment. Blood pressure (systolic and diastolic arterial blood pressure) and heart rate (pulse rate) data were collected at a sampling rate of 500 Hz using Dataquest A.R.T (v.4.3) and Ponemah software (v.5.0) (DSI, St. Paul, USA) using factory-provided calibration values for the individual transmitters and an Ambient Pressure Reference Monitor (DSI, St. Paul, USA) to ensure accurate blood pressure measurements. Data were collected continuously for 48 h and binned in 5 s intervals.
Upon 2-3 weeks of post-surgery recovery, the rats were transferred to fully automated food intake monitoring cages (HM-2, MBRose, Faaborg, Denmark) modified to simultaneously determine individualized food intake (by microchip, see below) and cardiovascular condition (by telemetry). For combined telemetry analysis, two receivers (RPC-1, Data Sciences International, St. Paul, Minn.) were placed in the bottom of each HM-2 food intake monitoring cages thereby fully covering the cage surface area. The modified HM-2 food intake monitoring cages were placed in a modified ventilated cabinet with lightproof doors and a light kit for cabinet-based control of light-dark cycle (Scanbur BK, Karslunde, Denmark) being similar to that in the holding rooms. Cabinet temperature was 24.0 to 26.0° C. and relative air humidity of 40 to 60%. The animals were habituated to the HM-2 food intake monitoring system for at least 5 days prior to initiation of drug treatment procedures. Prior to re-housing to the fully automated food intake monitoring cages, the rats were subcutaneuosly injected with a microchip (#402575, eVet, Haderslev, Denmark) to simultaneously identify, and in real-time mode to track feeding behavior of each individual animal throughout the entire experiment. Locomotor activity was detected by an integrated infrared sensor placed above the cage. Standard HM-2 control unit settings are reported previously in further details^7. All drugs and saline vehicle were administered 30 min before dark onset. All rats received the same treatment in each individual experiment, i.e. a parallel study design was used, and a wash-out period of at least 5 days was used between treatments to assure re-establishment of baseline levels of food intake, locomotor activity, heart rate and blood pressure. […]

[2] = Locomotor activity in telemetrized rats (infrared sensor); type: in vivo, rat
Method: as §1
Upon 2-3 weeks of post-surgery recovery, the rats were transferred to fully automated food intake monitoring cages (HM-2, MBRose, Faaborg, Denmark) modified to simultaneously determine individualized food intake (by microchip, see below) and cardiovascular condition (by telemetry). For combined telemetry analysis, two receivers (RPC-1, Data Sciences International, St. Paul, Minn.) were placed in the bottom of each HM-2 food intake monitoring cages thereby fully covering the cage surface area. […] Locomotor activity was detected by an integrated infrared sensor placed above the cage. […] Body weight was measured daily. […]
Data were fed into a standard graphic and statistical analysis program (GraphPad Prism v.4.03). Body weight data were calculated as absolute values (g) or daily body weight gain relative (control level=100%) to the first day of drug administration (day 0). Body weight gain and food intake were expressed as means±S.E.M of n individual animals. After acquisition of telemetry data, 12-hour means were calculated using Microsoft Excel 2007. […] All data were evaluated using a repeated-measure one-way ANOVA with Tukey's post-hoc test was applied to perform statistical comparisons between treatment groups. […]

[3] = Body weight in telemetrized rats; type: in vivo, rat; details: for effect on body weight regulation per se: antihypertensive drug alone, p.o.; for effect on tesofensine-induced reduction in body weight: co-administered with tesofensine 3.0 mg/kg p.o., Metoprolol 10, 20 mg/kg, Telmisartan 1.0, 3.0 mg/kg p.o.
Method: as §1
(§2) Upon 2-3 weeks of post-surgery recovery, the rats were transferred to fully automated food intake monitoring cages (HM-2, MBRose, Faaborg, Denmark) modified to simultaneously determine individualized food intake (by microchip, see below) and cardiovascular condition (by telemetry). For combined telemetry analysis, two receivers (RPC-1, Data Sciences International, St. Paul, Minn.) were placed in the bottom of each HM-2 food intake monitoring cages thereby fully covering the cage surface area. The modified HM-2 food intake monitoring cages were placed in a modified ventilated cabinet with lightproof doors and a light kit for cabinet-based control of light-dark cycle (Scanbur BK, Karslunde, Denmark) being similar to that in the holding rooms. Cabinet temperature was 24.0 to 26.0° C. and relative air humidity of 40 to 60%. The animals were habituated to the HM-2 food intake monitoring system for at least 5 days prior to initiation of drug treatment procedures. Prior to re-housing to the fully automated food intake monitoring cages, the rats were subcutaneuosly injected with a microchip (#402575, eVet, Haderslev, Denmark) to simultaneously identify, and in real-time mode to track feeding behavior of each individual animal throughout the entire experiment. Locomotor activity was detected by an integrated infrared sensor placed above the cage. Standard HM-2 control unit settings are reported previously in further details^7. All drugs and saline vehicle were administered 30 min before dark onset. All rats received the same treatment in each individual experiment, i.e. a parallel study design was used, and a wash-out period of at least 5 days was used between treatments to assure re-establishment of baseline levels of food intake, locomotor activity, heart rate and blood pressure. The home cage was removed from the HM-2 food intake monitoring system during the drug administration procedure and returned immediately after completion of the drug administration, whereupon automated monitoring of feeding behavior and cardiovascular parameters of each individual animal was resumed. Body weight was measured daily. Body weight and microstructural food intake analysis was performed using a data reporting software (HMView, MBRose, Faaborg, Denmark).
(§3) Data were fed into a standard graphic and statistical analysis program (GraphPad Prism v.4.03). Body weight data were calculated as absolute values (g) or daily body weight gain relative (control level=100%) to the first day of drug administration (day 0). Body weight gain and food intake were expressed as means±S.E.M of n individual animals. After acquisition of telemetry data, 12-hour means were calculated using Microsoft Excel 2007. Finally, statistical analysis and data presentation (mean±S.E.M.) was performed using GraphPad Prism v.4.03). All data were evaluated using a repeated-measure one-way ANOVA with Tukey's post-hoc test was applied to perform statistical comparisons between treatment groups. A p-value less than 0.05 was considered statistically significant.
(§4) All drugs were administered p.o. (1.0 ml/kg). […]

[4] = Real-time feeding monitoring (food intake) in telemetrized rats; type: in vivo, rat; details: for effect on food intake per se: antihypertensive drug alone, p.o.; for effect on tesofensine-induced reduction in food intake: co-administered with tesofensine 3.0 mg/kg p.o., Metoprolol 10, 20 mg/kg, Telmisartan 1.0, 3.0 mg/kg p.o.
Method: as §1, §2, §3, §4

[5] = long-term treatment, corrected for placebo and diet effects; cited from earlier work
[6] = tesofensine 1.0-5.0 mg/kg p.o., acute
[7] = 3.0-5.0 mg/kg p.o., acute, evident for at least 48 hours, compared to vehicle-treated rats

COCCc1ccc(OCC(O)CNC(C)C)cc1 (centres unmarked) [Metoprolol, 1-(Isopropylamino)-3-[4-(2-methoxyethyl)-phenoxy]-propan-2-ol]
effect on tesofensine-induced tachycardia ([1]; Metoprolol 10 mg/kg and 20 mg/kg co-treatment with tesofensine 3.0 mg/kg p.o.): fully reversed tesofensine-induced tachycardia
effect on tesofensine-evoked increase in diastolic pressure ([1]; Metoprolol 20 mg/kg co-treatment with tesofensine 3.0 mg/kg p.o., first light phase, 12-24 hours post-treatment): reversed by co-treatment with Metoprolol
effect on tesofensine-induced rise in systolic blood pressure ([1]; Metoprolol 20 mg/kg co-treatment with tesofensine 3.0 mg/kg p.o., for up to 24 hours): normalization of the systolic blood pressure
diastolic blood pressure, drug alone ([1]; Metoprolol 20 mg/kg p.o. alone, first 24 hours): did not produce any significant effects on diastolic blood pressure
duration of heart rate lowering effect ([1]; Metoprolol 10 and 20 mg/kg p.o., after administration): up to 24 hours
effect on tesofensine-induced locomotor activity ([2]; co-administered with tesofensine 3.0 mg/kg p.o., compared to tesofensine alone): completely prevented the locomotor activity inducing effect by tesofensine
effect on body weight regulation per se [3]: neither antihypertensive drug exhibited an effect
effect on tesofensine-induced reduction in body weight [3]: did also not affect
effect on food intake per se [4]: neither antihypertensive drug exhibited an effect
effect on tesofensine-induced reduction in food intake [4]: did also not affect tesofensine-induced reductions in food intake

CCCc1nc2c(C)cc(-c3nc4ccccc4n3C)cc2n1Cc1ccc(-c2ccccc2C(=O)O)cc1 [Telmisartan]
effect on tesofensine-induced rise in heart rate ([1]; Telmisartan 1.0 and 3.0 co-treatment with tesofensine 3.0 mg/kg p.o.): did not revert the rise in heart rate
heart rate and blood pressure, drug alone ([1]; Telmisartan alone 3.0 mg/kg p.o.): no effect on heart rate and blood pressure
effect on Tesofensine-induced increases in diastolic and systolic blood pressure ([1]; Telmisartan co-treatment with tesofensine 3.0 mg/kg p.o., p>0.05 compared to Tesofensine alone): did not lead to a significant prevention of Tesofensine-induced hypertension
heart rate compared to tesofensine alone ([1]; highest dose of Telmisartan (3.0 mg/kg) combined with tesofensine 3.0 mg/kg p.o.): significant increase in heart rate as compared to tesofensine administration alone
effect on body weight regulation per se [3]: neither antihypertensive drug exhibited an effect
effect on tesofensine-induced reduction in body weight [3]: did also not affect
effect on food intake per se [4]: neither antihypertensive drug exhibited an effect
effect on tesofensine-induced reduction in food intake [4]: did also not affect tesofensine-induced reductions in food intake

CCOC[C@@H]1[C@@H](c2ccc(Cl)c(Cl)c2)C[C@@H]2CC[C@H]1N2C [Tesofensine]
systolic blood pressure ([1]; tesofensine 3.0 mg/kg and 5.0 mg/kg p.o., up to 48 hours after administration): dose-dependent modest increase in systolic blood pressure
heart rate ([1]; tesofensine 3.0 mg/kg p.o., Telmisartan combination study): significantly increase heart rate
duration of heart rate increase [1, 6]: up to 48 hours
heart rate [1, 6]: dose-dependent increase in heart rate at all doses tested
diastolic blood pressure ([1]; tesofensine 1.0-5.0 mg/kg p.o., highest dose not significant (p=0.204)): trend towards a dose-dependent rise in diastolic blood pressure
locomotor activity ([2]; 3.0-5.0 mg/kg p.o., acute): significant, albeit short-lasting, increase in locomotor activity
duration of induced locomotor activity ([2]; first dark phase after acute dosing): up to 12 hours
net body weight loss (absolute) [3, 7]: 8 to 11 g
net body weight loss (relative) [3, 7]: 1.0-1.5%
duration of hypophagic effect ([4]; 5.0 mg/kg p.o., acute): ≤ 48 h
duration of hypophagic effect ([4]; 3.0-5.0 mg/kg p.o., acute): ≤ 24 h
duration of hypophagic effect ([4]; all doses (1.0-5.0 mg/kg p.o.), acute): up to 12 hours
food intake relative to the control level ([4]; tesofensine 5.0 mg/kg p.o., acute, 12 hours post-dosing, p<0.001): approximately 50%
weight loss in obese patients [5]: about 10%

From patent US9387184B2, “Pharmaceutical compositions for combination therapy” (Saniona A/S, priority 2012, dated 2016)
